Source: patent EP0246786A1, “N-1 subsituted sulfonylaminocarbonyl, C-4 substituted monobactams” (THE UPJOHN COMPANY, priority 1986, dated 1987)
In brackets after ≈: the same amount, converted by molar mass. Counter-ions that a name gives are not always drawn. Like-named read-outs stand apart in the source and are kept apart here.

Experiments:
Experiment in all cases: MIC by agar dilution (in vitro antimicrobial testing)
Format in all cases: cell-based
E. coli = settings: Escherichia coli, 20 h, 35°C, read-out: Minimum Inhibitory Concentration
Description: (§1) Compounds of the invention are tested for in vitro antimicrobial activity using standard testing procedures such as the determination of minimum inhibitory concentration (MIC) by agar dilution as described in "Methods for Dilution Antimicrobial Susceptibility Tests for Bacteria That Grow Aerobically" (MF-T) Published January 1983 by the National Committee for Clinical Laboratory Standards, 771 East Lancaster Avenue, Villanova, PA 19084. Briefly, MIC values are determined in unsupple- mented Mueller Hinton Agar (MHA). The compounds tested are diluted serially into molten MHA at 47°C. The agar is poured into petri dishes and allowed to harden. The various bacteria used for testing are grown overnight on MHA at 35°C and transferred to Tryptiease Soy Broth (TSB) until a turbidity of 0.5 McFarland standard is obtained. The bacteria are diluted one to twenty in TSB and inoculated on the plates (1 µl using a Steers replicator).

Ps. aeruginosa = settings: Pseudomonas aeruginosa, 20 h, 35°C, read-out: Minimum Inhibitory Concentration
Description: as §1

K.pneumoniae = settings: Klebsiella pneumoniae, read-out: Minimum Inhibitory Concentration
Description: as §1

K. oxytoca = settings: Klebsiella oxytoca, read-out: Minimum Inhibitory Concentration
Description: as §1

[1] = E. coli Culture No. 9379, Mueller Hinton Agar
[2] = E. coli Culture No. 9380, Mueller Hinton Agar
[3] = E. coli Culture No. 9451, Mueller Hinton Agar
[4] = Ps. aeruginosa Culture No. 231, Mueller Hinton Agar
[5] = Ps. aeruginosa Culture No. 6432, Mueller Hinton Agar
[6] = Ps. aeruginosa Culture No. 9191, Mueller Hinton Agar

SMILES	MIC (E. coli; [1]) [µg/mL]	MIC (E. coli; [2]) [µg/mL]	MIC (E. coli; [3]) [µg/mL]	MIC (Ps. aeruginosa; [4]) [µg/mL]	MIC (Ps. aeruginosa; [5]) [µg/mL]	MIC (Ps. aeruginosa; [6]) [µg/mL]	MIC (K.pneumoniae; K.pneumoniae Culture No. 58, Mueller Hinton Agar, 35°C, 20 hours) [µg/mL]	MIC (K. oxytoca; K. oxytoca Culture No. 9384, Mueller Hinton Agar, 35°C, 20 hours) [µg/mL]	MIC (K.pneumoniae; 20 h) [µg/mL]	MIC (K. oxytoca; 20 h) [µg/mL]
COC(=O)OC[C@@H]1[C@H](NC(=O)/C(=N\OCC(=O)O)c2csc(N)n2)C(=O)N1C(=O)NS(=O)(=O)N1CCN(NC(=O)c2cc(=O)c(O)c[nH]2)C1=O (racemic) [Compound A, cis-(±)-3-[2-(2-Amino-4-thiazolyl)-(Z)-2-(carboxy-methoxyimino)acetamido]-1-[(5-hydroxy-4-pyridon-2-yl)carbonylamino-1-(2-imidazolidone-3-yl)sulfonylaminocarbonyl]-4-[(methoxycarbonyl)-oxymethyl]-2-azetidinone, dipotassium salt]	≤ 0.015	≤ 0.015	≤ 0.015	4	1	4	1	0.06	–	–
CC1C(NC(=O)C(=NOC(C)(C)C(=O)O)c2csc(N)n2)C(=O)N1S(=O)(=O)O (stereo not shown) [Compound B, 2-[[[1-(2-amino-4-thiazolyl)-2-[(2-methyl-4-oxo-1-sulfo-3-azetidinyl)amino]-2-oxoethylidene]amino]oxy]-2-methylpropanoic acid]	0.03 (≈ 0.0689 µM)	0.06 (≈ 0.138 µM)	0.06 (≈ 0.138 µM)	8 (≈ 18.4 µM)	8 (≈ 18.4 µM)	2 (≈ 4.59 µM)	–	–	0.03 (≈ 0.0689 µM)	0.03 (≈ 0.0689 µM)
